# Results from a melting point compilation (Tetko et al.; mined from patent text by program, amines drawn as free bases though some values may be those of a salt).
row,SMILES,melting point
1,CC(C)(C)C(=O)c1c[nH]c2ncc(-c3cccc(NS(=O)(=O)c4ccc(N)cc4)c3)nc12,264 to 266 °C
2,CCOC(=O)c1nn(-c2ccc(Cl)cc2Cl)c(-c2ccc(Br)cc2)c1CC,108 °C
3,Cc1c(C(=O)Cl)c(C)c2cccc(C)c2c1C,216 °C
4,CCSc1nc(NC(C)=O)ccc1[N+](=O)[O-],168 °C
5,CC1(C)CCC(C)(C)c2cc(-c3cc(-c4ccc(C(N)=O)cc4)ccc3-c3ccccc3)ccc21,220 °C
6,NC(=O)C1(c2c(F)cccc2Cl)CC1,98 to 102 °C
7,CC12CC(F)C3c4ccc(O)cc4CC(CCCCCN4CCCC4)C3C1CCC2O (configuration not stated),95 to 118 °C
8,CC(C)Cc1cc([N+](=O)[O-])c2c(c1O)C(=O)c1c(O)c(CC(C)C)cc([N+](=O)[O-])c1C2=O,198 to 200 °C
9,CCc1cc(-c2cccnc2)nn1-c1ccc(NC(=O)c2cccnc2)cc1,188 to 190 °C
10,COc1cc(OCc2ccccn2)ccc1/C=C/c1cc(/C=C/c2cc3ccccc3o2)n[nH]1,199 to 201 °C
11,O=C(NCCc1ccccc1)c1ccc(N2CCOCC2)nc1,163 to 165 °C
12,COc1cc(NC(=O)n2cc(F)c(=O)[nH]c2=O)cc(OC)c1OC,168 to 170 °C
13,NCC(=O)c1cccc2c(S(=O)(=O)n3c(CCC(=O)O)cc4cc(Cl)ccc43)cccc12,130 to 135 °C
14,COc1nc2ccccn2c(=O)c1-c1ccc(Cl)cc1,149 to 151 °C
15,COCCNC(=O)c1cccc(-c2cccc3cc(Cc4ccc(F)cc4F)sc23)c1,94 to 95 °C
16,COC(=O)Cc1ccc(OCCNC(=O)C2Cc3ccccc3N2S(=O)(=O)c2ccc(-c3ccc(F)cc3F)cc2)cc1 (configuration not stated),60 to 64 °C
17,CCCC(CCC)n1nnc2c(Nc3c(C)cc(C)cc3Br)nc(C)nc21,141 to 142 °C
18,O=S1(=O)NCN(C2CC2)c2c1ccc(Br)c2Cl,128 to 131 °C
19,Cc1ccccc1-c1cc(Cl)ncc1C#N,112 °C
20,COC[C@H]1CC[C@H](c2ccc(I)cc2)CC1,40.3 to 42.3 °C
21,O=C(NOCC(O)CO)c1ccc(F)c(F)c1Nc1ccc(I)cc1F (configuration not stated),117 to 118 °C
22,CCOC(=O)C(=CNc1ccn(Cc2ccco2)n1)C(=O)c1ccccc1,75 to 77 °C
23,Nc1nc2c(ncn2OCC/C=C\P(=O)(O)O)c(=O)[nH]1,240 to 242 °C
24,OC1CSC(Oc2ccc(-c3ccsc3)nc2)C(O)C1O (configuration not stated),154 °C

row,SMILES,melting point
1,COc1ccc(Cl)cc1C(C)(C)c1cc(Cl)ccc1O,137 °C
2,CCC(=O)N[C@@H]1CCc2ccc(OC)cc2[C@H]1O,162 to 163 °C
3,Cc1nc(-n2cnn(CC3CC3)c2=O)sc1C(N)=O,180 to 181 °C
4,CCOP(=O)(OCC)C(c1ccccc1)c1ccccc1C(F)(F)F (configuration not stated),127 to 130 °C
5,CC(C)(C)COc1ccc([N+](=O)[O-])cc1C#N,90 to 91 °C
6,C#CCN(Cc1ccc2nc(C)[nH]c(=O)c2c1)c1ccc(C(=O)NCC(OC(C)=O)c2ccccc2)cc1 (configuration not stated),203 to 205 °C
7,CSc1c(CC(=O)O)ccc2c3ccccc3n(Cc3ccc(Cl)cc3)c12,176 to 178 °C
8,CS(=O)(=O)c1ccc(-n2nc(C(F)(F)F)cc2-c2ccc(C#Cc3ccccc3)cc2)cc1,170 to 172 °C
9,C[C@@H](CO)NS(=O)(=O)c1ccccc1[N+](=O)[O-],82 to 83 °C
10,CCOc1cc(NC(=O)CCC(=O)c2ccc(OCC)c(OCC)c2)nc(-c2ccccc2)c1,172 to 173 °C
11,COc1cc(Oc2cccc(C(F)(F)F)c2)nc(C(=O)NCCSCCF)c1,82 to 84 °C
12,COc1c(C2CCN(CCCCNC(=O)c3ccc(-c4ccc(C#N)s4)cc3)CC2)ccc2c1CCCC2,182 to 184 °C
13,CSc1cc(C(F)(F)F)cc(Cl)c1-n1c(Br)nc(Cl)c1S(=O)(=O)C(F)F,116 °C
14,Clc1ccc(-c2ccc(C3=NC[C@H](c4ccccc4)O3)cc2)cc1,122 °C
15,O=[N+]([O-])c1cc(Cl)c(I)c(Cl)c1,147 to 150 °C
16,COc1cc(CCNC(=O)c2cccnc2)ccc1O,192 to 194 °C
17,CCNCCCOc1ccc(-c2ccc(C(=O)OCC)cc2)cc1-c1ccc2c(c1)C(C)(C)CCC2(C)C,148 °C
18,Cc1ccc(-c2nn(CCO)c(=O)c(-c3ccccc3)c2-c2ccc(C)cc2)cc1,192 to 194 °C
19,COc1cc(C)c(NC(=O)CC(C)(C)C)c(C)c1Cc1ccc(C(C)C)cc1,181 to 182 °C
20,CS(=O)(=O)c1ccc(-c2nc(-c3ccccc3)nn2-c2ccc(Cl)cc2)cc1,170 °C
21,c1ccc(OCCSCc2nnc(-c3ccc(OCCCN4CCC4)cc3)o2)cc1,60 °C
22,CCOC(=O)C1=CCCC[C@H]1S(=O)(=O)Nc1ccc(F)cc1Cl,47 to 49 °C
23,NC(=O)c1ccccc1NCCC12CCCN1CCC2,145 to 147 °C
24,O=C(O)CCCCCNC(=O)C1Cc2ccccc2N1S(=O)(=O)c1ccc(-c2cccc(C(F)(F)F)c2)cc1 (configuration not stated),50 °C

row,SMILES,melting point
1,CC1(C)OC(C=Cc2ccc(F)cc2F)=CC1=O,98.5 to 100 °C
2,O=C1SCc2c1cccc2[N+](=O)[O-],128 to 133 °C
3,O=C(c1ccc(F)c(F)c1)N1CCC[C@H](c2nc(-c3ccccn3)no2)C1,135 to 137 °C
4,O=C(Nc1cc(-c2nc(-c3ccccc3)c[nH]2)ccn1)c1ccccc1,265 to 267 °C
5,O=C(Nc1ccc2c(c1)OCO2)N1Cc2ccccc2C1,165 to 166 °C
6,COC(=O)CCc1ccc(C(=O)Cc2ccccc2)cc1,77 to 78 °C
7,COc1ccc(-c2nn(Cc3ccc(OCc4nc(-c5ccccc5)oc4C)cc3)cc2CCC(=O)O)cc1,137 to 138 °C
8,N#Cc1cccc(CN2C(=O)NC(c3ccccc3)(c3ccccc3)C2=O)c1,160 to 164 °C
9,O=c1[nH]c2cccc3c2n1CCC3,216 °C
10,CCn1c(-c2cccnc2)nc(-c2ccncc2)c1-c1ccc(Cl)cc1,248 to 250 °C
11,CN1C(=O)CC[C@]2(C)c3ccc(Sc4nc5c(Cl)cccc5s4)cc3CC[C@@H]12,207 to 209 °C
12,O=C(CCl)c1ccc2c(c1)Cc1cc(C(=O)CCl)ccc1O2,200 to 201 °C
13,CN(C)c1c(CS(=O)(=O)C2=NOC(C)(C)C2)c(C(F)(F)F)nn1-c1ccccc1,150 to 151 °C
14,N#Cc1cnc2ccsc2c1Cl,105 to 107 °C
15,CC1(C)OC(=O)Nc2ccc(-c3ccccc3CC#N)cc21,176 to 179 °C
16,CC(=O)c1ccccc1Cc1ccccc1,42 to 43 °C
17,O=c1[nH]cnc2c1ncn2CCO,274 °C
18,C=COC(=O)N1C[C@@H]2C(=O)CCC(c3ccccc3)(c3ccccc3)[C@@H]2C1 (racemic),178 °C
19,OCc1cccc(C=CC2N=Cc3cc(Cl)ccc3S2)c1 (configuration not stated),143 to 145 °C
20,Cc1ccc(S(N)(=O)=O)cc1C(O)CCl (configuration not stated),126 °C
21,CC1(C)CCC(C)(C)c2cc3cc(-c4c[nH]c(C(=O)O)c4)ccc3cc21,234 to 238 °C
22,Cc1ccc2nc(SCCN(C)C)[nH]c2c1,103 °C
23,COc1ccnc(CO)c1Cl,103 to 105 °C
24,CN(C)C(=O)C(Br)Cn1ccc(-c2ccccc2)n1 (configuration not stated),93 to 94 °C
